Values of other authors, collected in patent USRE38506E1, “Potent inducers of terminal differentiation and methods of use thereof” (Sloan-Kettering Institute for Cancer Research, priority 1991, dated 2004).

System: MELC 745A-DS19 cells
Settings: without continuing drug exposure; cited from earlier work

For CC(=O)NCCCCCCNC(C)=O [HMBA, N,N′-hexamethylene bisacetamide], the “minimum duration of continuous exposure required to induce differentiation in a substantial portion (>20%) of the population” value is given as “about 36 hours”.
